Assay results from patent US11684652B2, “HMGB1 antagonist treatment of acute lung injury” (THE FEINSTEIN INSTITUTES FOR MEDICAL RESEARCH, priority 2019, dated 2023).
Values joined by “and” are separate entries in the source; they are usually repeats but may differ in a detail not shown here. Identical values can stand only once. “Also recorded” adds a separate entry of the source. Like-named read-outs stand apart in the source and are kept apart here.

Columns and labels:
[1] = system: PAMPs-induced TNF release (LPS, PGN, poly I:C, S100A12); experiment: PAMPs-induced TNF release in human macrophages; assay type: cell-based; conditions: human primary macrophages, increasing amounts of K883, 16 hours
Protocol: TNF released was measured.

[2] = system: STZ-induced diabetes; experiment: STZ-induced diabetes model; assay type: in vivo; conditions: STZ-diabetic mice, repetitive K883 500 μg/mouse, vs PBS
Protocol: Mice were administered repetitive administration of […] (500 μg/mouse). […] Repetitive administration of […] was therefore shown to be beneficial in STZ-induced diabetes. […] (*: P<0.05 vs. PBS group. N=6-8 mice per group).

[3] = system: liver ischemia and reperfusion injury; experiment: warm liver ischemia and reperfusion (I/R) model; assay type: in vivo, mouse; conditions: 6 hours after reperfusion, K883 vs vehicle control; FIGS. 21A-C
Protocol: […] (SEQ ID NO: 1) (or vehicle control) was administered intraperitoneally at 500 μg/mouse at the time of I/R surgery and euthanized 6 hours later. Serum levels of ALT and AST were reduced in […] (SEQ ID NO: 1)-treated group vs. vehicle controls. *: P<0.05 vs. I/R group. n=5-7 mice/group.

[4] = system: CCI-induced neuropathic pain; experiment: chronic constriction injury (CCI) of the sciatic nerve neuropathic pain model; assay type: in vivo, rat
Protocol: The CCI rats each received surgery. […] Mechanical and thermal sensitivity tests were also performed over time. Hargreaves Thermal Hypersensitivity test was administered to the rats as well as Von Frey mechanical hypersensitivity test.
Rats (male Wistar, 150-180 gm, n=6/group) had CCI surgery. […] Two weeks after surgery, thermal (Hargreaves) or mechanical (von Frey) hypersensitivity was assessed. *: P<0.05 vs. PBS group.
In this experiment, male Wistar rats (n=6/group) had CCI surgery. […] Mechanical allodynia was assessed 5 hours later. N=6-8 rats/group. *: p<0.05) vs. HMGB 1 alone. Mechanical and thermal sensitivity tests were also performed over time.

[5] = stability under acidic conditions (LC-MS); assay type: physicochemical; conditions: pH=2, two hours
[6] = system: influenza virus A/PR/8/34 (PR8); experiment: lethal influenza infection model; assay type: in vivo; conditions: C57BL/6J mice; K883 100 ug/mouse intraperitoneally for 5 consecutive days from two days after infection; vs vehicle
[7] = pharmacokinetics after intravenous administration in rats (LC-MS); conditions: IV 1 mg/kg
[8] = system: APAP-induced liver injury; experiment: APAP-induced liver injury model; assay type: in vivo, mouse
[9] = system: liver ischemia and reperfusion injury; conditions: cited from earlier work
[10] = system: PAMPs-induced TNF release (LPS, PGN, poly I:C, S100A12); conditions: Yang 2015; cited from earlier work
[11] = system: APAP-induced liver injury; conditions: cited from earlier work

In the case of `NC(=O)N(CCC(=O)O)NC(=O)[C@H](CO)NC(=O)[C@H](CO)NC(=O)N(N)Cc1ccccc1` [K883], the “inhibition of TNF release induced by other PAMPs (LPS, PGN, AGE, Poly I:C)” value [1] is reported as “failed to inhibit other PAMPS; also recorded: does not inhibit other PAMPs”, the hyperglycemia [2] is reported as “delays hyperglycemia” and the insulitis [2] is reported as “reduces insulitis”. For the same molecule, the weight gain [2] was “improves weight gain”, the “liver inflammation, H&E (neutrophil infiltration)” value [3] was “reduced inflammation” and the “tolerance to repeated treatment” value ([4]; K883 800 μg/rat IP once daily for three days, evaluated for 2 weeks) was “did not develop tolerance”. For the same molecule, the “Paw Withdrawal Latency” value ([4]; NO CCI (reference value)) was 9.5 ± 1.0 s, the “CCI-induced thermal (Hargreaves) and mechanical (von Frey) hypersensitivity” value ([4]; male Wistar rats, K883 800 μg/rat IP once a day for 3 days, vs PBS) was “ameliorated both mechanical and thermal hypersensitivity; also recorded: improved CCI-induced thermal and mechanical hypersensitivity; also recorded: ameliorated the thermal hypersensitivity” and the “CCI-induced CXCL1, TNF and IL-1β expression (spine)” value ([4]; spine) was “reduce CCI-induced CSCL1, TNF and IL-1(3 expression”. The “stability under acidic conditions” value [5] was “resistant to acid hydrolysis”, the “survival (14 days) after PR8 infection” value [6] was “significant survival” and the “AUC∞” value ([7]; Mean) was 3778 ng·h/mL. For the same molecule, the “AUC∞” value ([7]; individual rats, 1 mg/kg) was 3808 ng·h/mL and 3751 ng·h/mL, the “serum ALT” value ([8]; 50 ugs/mouse of K883, vs vehicle controls) was “reduced serum ALT” and the “liver necrosis (H&E)” value ([8]; APAP 350 mg/kg IP, K883 50 μg/mouse IP at 2 and 7 hours post-APAP, 24 hours, vs vehicle) was “reduced liver necrosis”. For the same molecule, the “survival (2 weeks) post-APAP” value ([8]; APAP 400 mg/kg, 50 μg/mouse IP once-a-day for 5 days starting 2 hours post-APAP, 8 in the control group) was 14 mice out of 15.
For `NC(=O)[C@H](CCC(=O)O)NC(=O)[C@H](CO)NC(=O)[C@H](CO)NC(=O)[C@@H](N)Cc1ccccc1` [P5779], the “liver inflammation, H&E (neutrophil infiltration)” value ([9]; 6 hours after reperfusion, P5779 vs vehicle control) is given as “reduced inflammation”, the “serum levels of ALT and AST” value ([9]; male C57BL/6 mice, 500 μg/mouse IP at the time of I/R surgery, 6 hours, vs vehicle) is given as “reduced” and the “suppression of TNF release in macrophages stimulated by LPS, PGN, Poly I:C, CpG DNA or S100 A12” value [10] is given as “not suppress TNF release”. The “liver necrosis (H&E)” value ([11]; APAP 350 mg/kg, P5779 50 or 500 μg/mouse IP at 2 and 7 hours post-APAP, vs scrambled control peptide) was “reduced liver necrosis” and the “percent survival (2 weeks) post-APAP” value ([11]; APAP 400 mg/kg, P5779 500 μg/mouse IP once a day for 5 days starting 2 hours post-APAP) was “significantly improved”.
